Source: patent publication US6737433B1, “1-N-phenylamino-1H-imidazole derivatives as aromatase inhibitors and pharmaceutical compositions containing them” (Laboratoire Theramex, priority 2002, dated 2004)

Legend:
[1] = target: T1, aromatase (Rattus norvegicus, UniProt P22443); assay: Inhibition of aromatase in vivo: inhibition of preovulatory surge of plasma estradiol in female Wistar rats; settings: single oral dose 10 μg/kg on diestrus, plasma estradiol 24 h later, vs vehicle controls; range = independent studies
T1 construct: from tissue; host or cells: whole animal: adult female Wistar rats (endogenous enzyme)
T1 sequence (P22443 1-508): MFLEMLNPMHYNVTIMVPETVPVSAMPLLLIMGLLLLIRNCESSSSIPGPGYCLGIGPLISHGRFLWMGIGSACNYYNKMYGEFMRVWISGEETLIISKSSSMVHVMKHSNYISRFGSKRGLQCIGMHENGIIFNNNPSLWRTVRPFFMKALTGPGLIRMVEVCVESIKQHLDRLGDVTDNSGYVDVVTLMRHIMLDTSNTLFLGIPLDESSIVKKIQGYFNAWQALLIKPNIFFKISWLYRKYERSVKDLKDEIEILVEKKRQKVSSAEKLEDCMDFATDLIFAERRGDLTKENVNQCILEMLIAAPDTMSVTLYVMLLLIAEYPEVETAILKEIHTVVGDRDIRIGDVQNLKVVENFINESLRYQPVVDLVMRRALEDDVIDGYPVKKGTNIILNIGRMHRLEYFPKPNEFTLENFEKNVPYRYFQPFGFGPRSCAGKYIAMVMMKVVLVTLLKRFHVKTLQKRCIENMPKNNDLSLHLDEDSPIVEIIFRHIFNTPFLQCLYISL
Text: Aromatase is the steroidogenic enzyme responsible for the biosynthesis of estradiol, the main female sex hormone among estrogens. In the rat, estradiol is physiologically synthesized to high circulating levels in a particular period during the 4-day estrous cycle: it is the so-called preovulatory surge taking place in the afternoon of proestrus, just before ovulation which occurs during the night between proestrous and estrous phases. A sensitive physiological model for in vivo evaluation of aromatase inhibition was developped based on the inhibition of this preovulatory surge of estradiol levels.
Adult female Wistar rats are monitored for regular 4-day estrous cyclicity by daily vaginal smear examination; after 2 or 3 regular cycles, animals are treated by a single oral administration of the very low discriminative dose of 10 micrograms/kg in a 4 ml/kg volume around 04:00 PM on diestrus, i.e. on the day before proestrus. Precisely 24 hours later, aortic blood samples are drawn under gaseous anesthesia. Plasma estradiol levels are measured by radioimmunoassay with commercially available kits (Diagnostic Systems Laboratories, Webster, Tex., U. S. A.). Control and test groups usually consist of 7 to 10 rats, depending on the number of regularly cycling rats to distribute among study groups. Results are expressed in pg/ml and then in % of inhibition taking the estradiol levels of control animals receiving only the oral vehicle as the 100% reference to allow comparisons between different independent studies, since the preovulatory surge level may vary in each control group from one study to another between about 25 to 40 pg/ml.

[2] = target: T2, human aromatase (Homo sapiens, UniProt P11511); assay: Inhibition of human aromatase in vitro in JEG-3 cells (3H-water release from 1β-3H-androstenedione); assay type: cell-based; settings: 10 nM 1β-3H-androstenedione, 2 h incubation
T2 construct: The JEG-3 cell line, derived from a human placental choriocarcinoma, is intrinsically very rich in human aromatase; endogenous in cells; host or cells: JEG-3 (human placental choriocarcinoma)
T2 sequence (P11511 1-503): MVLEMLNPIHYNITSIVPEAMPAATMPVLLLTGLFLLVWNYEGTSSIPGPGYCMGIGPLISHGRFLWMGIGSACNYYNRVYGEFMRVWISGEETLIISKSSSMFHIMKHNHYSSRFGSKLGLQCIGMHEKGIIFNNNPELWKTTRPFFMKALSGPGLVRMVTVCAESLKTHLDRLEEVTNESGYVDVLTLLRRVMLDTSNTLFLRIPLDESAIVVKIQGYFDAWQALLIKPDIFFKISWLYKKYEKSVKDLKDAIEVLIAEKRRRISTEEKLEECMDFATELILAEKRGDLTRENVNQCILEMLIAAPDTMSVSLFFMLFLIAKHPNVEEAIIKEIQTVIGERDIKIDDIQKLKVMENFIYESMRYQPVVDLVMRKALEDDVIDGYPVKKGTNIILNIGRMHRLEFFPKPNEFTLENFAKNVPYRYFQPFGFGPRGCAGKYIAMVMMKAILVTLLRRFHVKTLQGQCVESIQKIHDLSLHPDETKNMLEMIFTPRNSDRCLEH
Description: Stocks of JEG-3 cells are grown up to 80% of confluence as monolayers in plastic flasks in minimum Eagle's medium with 1 g/l glucose and 10% decomplemented fetal calf serum at pH 7.4 and 37° C., under a 5% CO2 atmosphere. Then, 24 hours before aromatase activity measurement, JEG-3 cells are distributed for seeding in 96-well microplates (60,000 to 100,000 viable cells in 100 μl of culture medium per well); 24 hours later, microplates are rinsed and fresh medium containing the radioactive aromatase substrate (1β-^3H-androstenedione, 10 nM) is added together with test compounds dissolved with 1% dimethylsulfoxyde in a test concentration range between 10^−11 and 10^−4 M in a total volume of 150 μl.
Two hours after the beginning of the incubation, 100 μl of the supernatants are transferred to homologous new 96-well microplates. A solution of dextran-coated charcoal (1%) is added in each well (100 μl/well); after standing for 10 minutes on ice, microplates are centrifuged (1500 g) for 10 more minutes at 4° C. All steroids, including the radioactive substrate and the newly biosynthesized estrogens, are trapped complexed by the charcoal; only the ^3H-water specifically formed during aromatisation of 1β-^3H-androstenedione, involving a specific oxidative step removing the 1β-^3H, remains in the supernatant at this stage.
Finally, aromatase activity is expressed in fmoles/μg DNA in 2 hours and aromatase inhibition in percentage of control incubation without inhibitors.

Structure (SMILES)	% inhibition at 10 μg/kg [1]	IC50 [2] [nM]	melting point [°C]
CC(C)(C#N)c1cc(Cn2cncn2)cc(C(C)(C)C#N)c1 [Anastrozole, anastrozole, reference compound]	18%-33%	–	–
N#Cc1ccc(CN(c2ccc(C#N)cc2)n2ccnc2)cc1 [Example 11, 4-[N-(1H-imidazol-1-yl)-N-(4-cyanophenylmethyl)amino]benzonitrile]	57%-59%	0.18 ± 0.02	–
N#Cc1ccc(N(Cc2ccc(F)c(F)c2)n2ccnc2)cc1 [Example 17, 4-[N-(1H-imidazol-1-yl)-N-(3,4-difluorophenylmethyl)amino]benzonitrile]	60%	0.24 ± 0.02	132
N#Cc1ccc(N(Cc2ccc(Cl)cc2)n2ccnc2)cc1 [Example 7, 4-[N-(1H-imidazol-1-yl)-N-(4-chlorophenylmethyl)amino]benzonitrile]	47%	0.14 ± 0.05	–
N#Cc1ccc(N(Cc2ccc(Br)cc2)n2cncn2)cc1 [YM 511, reference compound]	35%	0.3 ± 0.04	–
N#Cc1ccc(N(Cc2ccc(C(F)(F)F)cc2)n2ccnc2)cc1 [Example 6, 4-[N-(1H-imidazol-1-yl)-N-(4-trifluoromethylphenylmethyl)amino]benzonitrile]	57%	0.31 ± 0.01	134
N#Cc1ccc(N(Cc2ccc(F)cc2)n2ccnc2)cc1 [Example 14, 4-[N-(1H-imidazol-1-yl)-N-(4-fluorophenylmethyl)amino]benzonitrile]	49%-57%	0.16 ± 0.02	–
